Test results published in patent US20230052740A1, “MODULATORS OF CIRCADIAN RHYTHMS AND USES THEREOF” (The Regents of the University of California, priority 2019, published 2023).
Where two headings read alike, the source gives them in different places.

Legend:
hMT1 = hMT1 (Homo sapiens, UniProt P48039); assay: cAMP assay (GloSensor), isoproterenol-stimulated cAMP in HEK cells; assay type: cell-based; parameters: expressed in transfected cells; host or cells: HEK-T (HEK-293 T) cells, co-transfected with GloSensor DNA; details: for Emax: read-out: MT1 % Emax (converted); for EC50: read-out: EC50 at MT1
Experimental: HEK-293 T cells were maintained with complete Dulbecco's modified Eagle's medium (DMEM), which is composed of 10% fetal bovine serum (FBS), 2 mM L-glutamine, 100 units/ml penicillin G, 100 μg/ml streptomycin at 37° C. in the presence of 5% CO2
(§1) MT1 and MT2 receptors were tested using Promega's spilt luciferase based GboSensor cAMP biosensor technology. HEK-T cells were plated in 15 cm cell culture dish (at a density of 18 million cells) containing DMEM composed of 10% dialyzed FBS, 2 mM L-glutamine, 100 units/ml penicillin G, 100 μg/ml streptomycin for 4-6 hour. Then, cells were co-transfected with 8 μg of construct which encodes either MT1 or MT2 (de-Tangonized constructs) and […] of Glosensor DNA. Next day, transfected cells were seeded into poly-L-lysinecoated 384-well white clear bottom cell culture plates with complete DMEM with 1% dialized FBS at a density of 20,000 cells per well for another 24 h. The next day, cell medium were discarded and loaded with 20 μl of assay buffer (1×HBSS, 20 mM HEPES, pH 7.4, 0.1% BSA). To measure agonist activity of MT1 or MT2 receptor, 10 μl of test compound solution at 3× final concentration was added for 15 minutes followed by addition of 10 μl of luciferin/isoproterenol mixture (at a final concentration of 4 mM and 200 nM respectively) for another 15 mins for luminescence quantification. Then, plates were counted using SpectraMax luminescence reader (Molecular Device). Data were analyzed using GraphPad Prism 6.0.

MT2 = molecular target: T1, MT2 (Homo sapiens, UniProt P49286); assay: as above; assay type: cell-based; parameters: expressed in transfected cells; host or cells: HEK-T (HEK-293 T) cells, co-transfected with GloSensor DNA; MT2 activity: dose or concentration left out as unconfirmed; details: for Emax: read-out: MT2 % Emax (converted); for MT2 pEC50: Table 2; for type selectivity: panel of widely-used MTR ligands, in words
T1 sequence (P49286 1-362): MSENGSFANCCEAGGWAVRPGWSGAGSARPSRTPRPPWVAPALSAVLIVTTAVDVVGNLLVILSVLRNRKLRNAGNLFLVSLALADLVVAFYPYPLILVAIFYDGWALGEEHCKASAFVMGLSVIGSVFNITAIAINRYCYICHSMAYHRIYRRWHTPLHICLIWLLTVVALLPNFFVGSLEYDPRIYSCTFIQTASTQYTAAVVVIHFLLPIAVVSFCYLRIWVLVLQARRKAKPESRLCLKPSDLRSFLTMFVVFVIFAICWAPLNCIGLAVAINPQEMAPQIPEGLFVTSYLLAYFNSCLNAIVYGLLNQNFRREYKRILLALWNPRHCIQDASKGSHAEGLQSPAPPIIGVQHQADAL
Experimental: as §1, with “Next day, transfected cells were seeded into poly-L-lysinecoated 384-well white clear bottom cell culture plates with complete DMEM with 1% dialized FBS at a density of 20,000 cells per well for another 24 h.” left out

[1] = HEK293, Table 2, agonist, normalized to melatonin response
[2] = HEK293, Table 1, agonist, normalized to melatonin response
[3] = HEK293, Table 2, cell marked Inverse (inverse agonist)
[4] = cell marked Inverse (inverse agonist)
[5] = HEK293, Table 1, cell marked Inverse (inverse agonist)

hMT1, sequence (P48039 whole entry): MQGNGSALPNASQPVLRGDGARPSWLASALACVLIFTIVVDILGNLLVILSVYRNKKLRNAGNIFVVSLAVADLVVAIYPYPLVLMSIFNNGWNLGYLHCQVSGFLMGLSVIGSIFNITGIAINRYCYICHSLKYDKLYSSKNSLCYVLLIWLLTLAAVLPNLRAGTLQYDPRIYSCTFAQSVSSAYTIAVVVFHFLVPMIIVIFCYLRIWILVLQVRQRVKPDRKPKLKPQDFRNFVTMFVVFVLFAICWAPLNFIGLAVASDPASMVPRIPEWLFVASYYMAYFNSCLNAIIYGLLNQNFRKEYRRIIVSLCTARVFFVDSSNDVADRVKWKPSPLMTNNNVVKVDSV

For `CN(Cc1ccc2c(c1)OCO2)c1ccnc(Cl)c1` [ZINC223593565], the Emax (hMT1; [1]) was 86% and the Emax (MT2; [1]) was 58%.
For `CN(Cc1ccc2c(c1)OCO2)c1ccnc(Cl)c1` [ZINC301472854], the Emax (hMT1; [2]) was 95%, the “MT1 pEC50” value (hMT1; Table 1, agonist) was 6.03 ± 0.10 and the Emax (MT2; [2]) was 88%.
With `COc1ccc(CN(C)C(=O)c2cccc(OC(F)F)c2)cc1O` [ZINC353044322] the Emax (hMT1; [2]) was 87%, the “MT1 pEC50” value (hMT1; Table 1, agonist) was 5.48 ± 0.05 and the EC50 (hMT1; agonist) was 2 to 6 µM. The MT2 activity (MT2) was “without detectable MT2 activity”.
`COC(=O)c1cc(Cn2ccn3c(=O)cc(C)nc23)c(C)s1` [ZINC419113878] was tested, and the Emax (hMT1; [2]) was 84%, the “MT1 pEC50” value (hMT1; Table 1, agonist) was 5.20 ± 0.08 and the EC50 (hMT1; agonist) was 2 to 6 µM. For the same compound, the MT2 activity (MT2) was “without detectable MT2 activity”.
`COC(=O)c1ccc(I)c(Oc2ccnc(C)n2)c1` [ZINC432154404] was tested, and the Emax (hMT1; [2]) was 95%, the “MT1 pEC50” value (hMT1; Table 1, agonist) was 6.63 ± 0.17 and the Emax (MT2; [2]) was 74%.
In the case of `Cn1c(=O)oc2c(NCc3ccc(-c4cc[nH]n4)o3)cccc21` [ZINC433313647], the Emax (hMT1; [2]) is reported as 42%, the “MT1 pEC50” value (hMT1; Table 1, agonist) is reported as 6.81 ± 0.32 and the Emax (MT2; [2]) is reported as 96%.
In the case of `COc1ccc(CN(C(=O)c2scc(C)c2Cl)c2ccncc2)cc1` [ZINC485552623], the MT1 activity (hMT1; FIG. 7D, in words) is reported as “without detectable MT1 activity”, the Emax (MT2; [1]) is reported as 107% and the “MT2 pEC50” value (MT2; agonist) is reported as 5.80 ± 0.06.
With `COc1ccc(CN(C(=O)OC2CCC2)c2ccncc2)cc1` [ZINC497291360] the Emax (hMT1; [1]) was 92%, the “MT1 pEC50” value (hMT1; Table 2, agonist) was 7.05 ± 0.10 and the “selectivity for MT2 over MT1” value (MT2; FIG. 7 analogs of '9032) was 2 fold. For the same compound, the Emax (MT2; [1]) was 75 ± 50.1% and the “MT2 pEC50” value (MT2; agonist) was 7.48 ± 0.05.
`Clc1cc(Br)ccc1CNc1cccc(-c2nnc[nH]2)c1` [ZINC516666069] was tested, and the Emax (hMT1; [3]) was 42%, the “MT1 pEC50” value (hMT1; Table 2, cell marked Inverse (inverse agonist)) was 7.05 ± 0.03 and the Emax (MT2; [3]) was 118%. The “MT2 pEC50” value (MT2; [4]) was 5.58 ± 0.04.
In the case of `CCc1nc(SCc2cccc(C(=O)OC)c2)nc(O)c1C` [ZINC576887661], the Emax (hMT1; [2]) is reported as 83%, the “MT1 pEC50” value (hMT1; Table 1, agonist) is reported as 7.10 ± 0.19 and the Emax (MT2; [2]) is reported as 68%.
With `COCCN(Cc1ccc2c(c1)OCO2)c1nc(C(F)(F)F)ns1` [ZINC580731466] the Emax (hMT1; [2]) was 71%, the “MT1 pEC50” value (hMT1; Table 1, agonist) was 5.70 ± 0.13 and the “selectivity for the MT2 receptor” value (MT2) was ~100 fold. It also gave an Emax (MT2; [2]) of 98%.
`COC(=O)c1cc(Cn2nc(C)c(N)c2C)c(C)s1` [ZINC602421874] was tested, and the Emax (hMT1; [1]) was 51%, the “MT1 pEC50” value (hMT1; Table 2, agonist) was 4.70 ± 0.11 and the Emax (MT2; [1]) was 66%. The “MT2 pEC50” value (MT2; agonist) was 5.35 ± 0.10.
For `CCOC(=O)c1nc(N(C)CC2CCCC2O)ccc1Br` (stereo not shown) [ZINC603324490], the Emax (hMT1; [5]) was 37%, the “MT1 pEC50” value (hMT1; Table 1, cell marked Inverse (inverse agonist)) was 5.92 ± 0.29 and the MT1 efficacy (hMT1; in the concentration range of its MT2 inverse agonism (600 nM)) was “without substantial MT1 efficacy”. It also gave an Emax (MT2; [5]) of 202% and an EC50 (MT2; inverse agonist, read-out: EC50 at MT2) of 600 nM.
For `Cc1cc(=O)n2ccn(CCc3ccc4c(c3)OC(F)(F)O4)c2n1` [ZINC664088238], the Emax (MT2; [2]) was 75%.
`COC(=O)c1csc(CSc2nnc(C3CC3)[nH]2)c1` [ZINC713465976] was tested, and the Emax (hMT1; [1]) was 101%, the “MT1 pEC50” value (hMT1; Table 2, agonist) was 7.75 ± 0.22 and the Emax (MT2; [1]) was 94%. For the same compound, the “MT2 pEC50” value (MT2; agonist) was 8.23 ± 0.11.
In the case of `COc1ccc(CNc2cccc(-n3nccn3)c2)cc1` [ZINC864032792], the Emax (hMT1; [1]) is reported as 57%, the “MT1 pEC50” value (hMT1; Table 2, agonist) is reported as 7.49 ± 0.04 and the Emax (MT2; [3]) is reported as 35%. The “MT2 pEC50” value (MT2; [4]) was 6.66 ± 0.08.
With `COc1ccc2cccc(CCNC(C)=O)c2c1` [agomelatine, reference compound] the type selectivity (MT2) was “little type selectivity”.
In the case of `CCC(=O)NCC[C@@H]1CCc2ccc3c(c21)CCO3` [ramelteon, reference compound], the type selectivity (MT2) is reported as “little type selectivity”.
